PubChem BioAssay AID256 (DTP/NCI, 2004)
Several values for one entry are separate records, joined by “and”; a condition that tells them apart may be missing. Identical values can stand only once. Toxic doses and inconclusive results are not listed.

System: CD2F1 mice, L1210 leukemia ip, survival T/C
Test: NCI In Vivo Anticancer Drug Screen. Data for tumor model L1210 Leukemia (intraperitoneal) in CD2F1 (CDF1) mice
Details: higher = longer survival
Outline: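 Implant tumor; dose compound or vehicle; measure endpoint in both groups; report treated divided by control.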

[1] = endpoint: mean survival time, dose: 100.0 mg/kg/injection, schedule: Q01DX001 (ip), vehicle: saline
[2] = endpoint: mean survival time, dose: 200.0 mg/kg/injection, schedule: Q01DX001 (ip), vehicle: saline
[3] = endpoint: mean survival time, dose: 100.0 mg/kg/injection, schedule: Q04DX003 (ip), vehicle: saline with Tween-80
[4] = endpoint: mean survival time, dose: 200.0 mg/kg/injection, schedule: Q04DX003 (ip), vehicle: saline with Tween-80
[5] = endpoint: mean survival time, dose: 100.0 mg/kg/injection, schedule: Q04DX002 (ip), vehicle: saline with Tween-80
[6] = endpoint: mean survival time, dose: 200.0 mg/kg/injection, schedule: Q04DX002 (ip), vehicle: saline with Tween-80
[7] = endpoint: mean survival time, dose: 400.0 mg/kg/injection, schedule: Q04DX002 (ip), vehicle: saline with Tween-80

**Q.** What does the source list for `Cc1cc(O)c(O)c(C(C)(C)CC(C)(C)C)c1`?
**A.** T/C (endpoint: mean survival time, dose: 12.5 mg/kg/injection, schedule: Q01DX009 (ip), vehicle: saline + alcohol): 100 % of control; T/C (endpoint: mean survival time, dose: 25.0 mg/kg/injection, schedule: Q01DX009 (ip), vehicle: saline + alcohol): 97 % of control; T/C (endpoint: mean survival time, dose: 50.0 mg/kg/injection, schedule: Q01DX009 (ip), vehicle: saline + alcohol): 103 % of control; T/C (endpoint: mean survival time, dose: 100.0 mg/kg/injection, schedule: Q04DX003 (ip), vehicle: saline + alcohol): 105 % of control; T/C (endpoint: mean survival time, dose: 200.0 mg/kg/injection, schedule: Q04DX003 (ip), vehicle: saline + alcohol): 103 % of control; T/C (endpoint: mean survival time, dose: 400.0 mg/kg/injection, schedule: Q04DX003 (ip), vehicle: saline + alcohol): 100 % of control

**Q.** `COC1(OC)C2(Cl)CCC1(Cl)CC2` was tested. Which T/C (endpoint: mean survival time, dose: 50.0 mg/kg/injection, schedule: Q01DX001 (ip), vehicle: saline) did it give?
**A.** The T/C was 103 % of control.

**Q.** What about the T/C [1] of the same compound?
**A.** The T/C was 113 % of control.

**Q.** And the T/C [2]?
**A.** The T/C was 102 % of control.

**Q.** How did the T/C (endpoint: median survival time, dose: 12.5 mg/kg/injection, schedule: Q01DX009 (ip), vehicle: saline with Tween-80) turn out when `CCCCNP1(NCCCC)=NP(NCCCC)(NCCCC)=NP(NCCCC)(NCCCC)=NP(NCCCC)(NCCCC)=N1` was run?
**A.** The T/C was 107 % of control.

**Q.** What about the T/C (endpoint: median survival time, dose: 25.0 mg/kg/injection, schedule: Q01DX009 (ip), vehicle: saline with Tween-80) of the same compound?
**A.** Its T/C is 107 % of control.

**Q.** And the T/C (endpoint: median survival time, dose: 50.0 mg/kg/injection, schedule: Q01DX009 (ip), vehicle: saline with Tween-80)?
**A.** Its T/C is 97 % of control.

**Q.** `CCC[CH2][Sn]([CH2]C)([CH2]C)[O]C(C)=O` was tested. Which T/C (endpoint: mean survival time, dose: 2.5 mg/kg/injection, schedule: Q01DX009 (ip), vehicle: saline with Tween-80) did it give?
**A.** Its T/C is 104 % of control.

**Q.** And the T/C (endpoint: mean survival time, dose: 5.0 mg/kg/injection, schedule: Q01DX009 (ip), vehicle: saline with Tween-80)?
**A.** The T/C was 102 % of control.

**Q.** `CC(=O)NNC(=O)c1ccc2ccccc2n1` was tested. Which T/C (endpoint: mean survival time, dose: 50.0 mg/kg/injection, schedule: Q01DX009 (ip), vehicle: saline with Tween-80) did it give?
**A.** The T/C was 96 % of control.

**Q.** And the T/C (endpoint: mean survival time, dose: 50.0 mg/kg/injection, schedule: Q04DX003 (ip), vehicle: saline with Tween-80)?
**A.** Its T/C is 107 % of control.

**Q.** And the T/C (endpoint: mean survival time, dose: 100.0 mg/kg/injection, schedule: Q01DX009 (ip), vehicle: saline with Tween-80)?
**A.** Its T/C is 104 % of control.

**Q.** And the T/C [3]?
**A.** Its T/C is 103 % of control.

**Q.** What about the T/C (endpoint: mean survival time, dose: 200.0 mg/kg/injection, schedule: Q01DX009 (ip), vehicle: saline with Tween-80) of the same compound?
**A.** The T/C was 111 % of control.

**Q.** And the T/C [4]?
**A.** The T/C was 101 % of control.

**Q.** For `C=CCOCC(O)CN1CCCCC1` (centres undefined), which T/C (endpoint: mean survival time, dose: 50.0 mg/kg/injection, schedule: Q01DX009 (ip), vehicle: saline) is on record?
**A.** Its T/C is 116 % of control.

**Q.** What about the T/C (endpoint: mean survival time, dose: 100.0 mg/kg/injection, schedule: Q01DX009 (ip), vehicle: saline) of the same compound?
**A.** The T/C was 96 % of control.

**Q.** `CN(CCOS(C)(=O)=O)CCOS(C)(=O)=O` was tested. Which T/C (endpoint: mean survival time, dose: 5.0 mg/kg/injection, schedule: Q01DX001 (ip), vehicle: saline) did it give?
**A.** Its T/C is 121 % of control.

**Q.** For `CC1(C)CCCC2(C)C(OCCO)=CC(=O)C=C12` (centres undefined), which T/C (endpoint: mean survival time, dose: 100.0 mg/kg/injection, schedule: Q04DX003 (ip), vehicle: saline sonified) is on record?
**A.** Its T/C is 96 % of control.

**Q.** And the T/C (endpoint: mean survival time, dose: 200.0 mg/kg/injection, schedule: Q04DX003 (ip), vehicle: saline sonified)?
**A.** The T/C was 98 % of control.

**Q.** And the T/C (endpoint: mean survival time, dose: 400.0 mg/kg/injection, schedule: Q04DX003 (ip), vehicle: saline sonified)?
**A.** Its T/C is 96 % of control.

**Q.** Which results are given for `CC(C)(C)c1ccc(C(=O)C2CC2)cc1`?
**A.** T/C [3]: 98 % of control; T/C [4]: 96 % of control

**Q.** `O=[N+]([O-])Nc1ccc(C(c2ccc(N[N+](=O)[O-])cc2)c2ccc([N+](=O)[O-])cc2)cc1` was tested. Which T/C [5] did it give?
**A.** The T/C was 95 % of control.

**Q.** What about the T/C [6] of the same compound?
**A.** The T/C was 88 % of control.

**Q.** What about the T/C [7] of the same compound?
**A.** The T/C was 88 % of control.

**Q.** How did the T/C (endpoint: mean survival time, dose: 6.0 mg/kg/injection, schedule: Q01DX001 (ip), vehicle: saline) turn out when `CC1C[C@@H](O)C(NC(=O)N(CCCl)N=O)[C@@H](O)C1` (some centres undefined) was run?
**A.** The T/C was 191 % of control.

**Q.** What about the T/C (endpoint: mean survival time, dose: 9.0 mg/kg/injection, schedule: Q01DX001 (ip), vehicle: saline) of the same compound?
**A.** The T/C was 367 % of control.

**Q.** And the T/C (endpoint: mean survival time, dose: 13.0 mg/kg/injection, schedule: Q01DX001 (ip), vehicle: saline)?
**A.** The T/C was 297 % of control.

**Q.** And the T/C (endpoint: mean survival time, dose: 20.0 mg/kg/injection, schedule: Q01DX001 (ip), vehicle: saline)?
**A.** The T/C was 500 % of control.

**Q.** And the T/C (endpoint: mean survival time, dose: 30.0 mg/kg/injection, schedule: Q01DX001 (ip), vehicle: saline)?
**A.** Its T/C is 298 % of control.

**Q.** For `N#CC(c1ccc(N)cc1)C(CC(=O)c1ccccc1)c1ccccc1` (centres undefined), which T/C [5] is on record?
**A.** The T/C was 87 % of control and 95 % of control.

**Q.** What about the T/C [6] of the same compound?
**A.** The T/C was 91 % of control.

**Q.** What about the T/C [7] of the same compound?
**A.** The T/C was 87 % of control and 95 % of control.

**Q.** How did the T/C (endpoint: mean survival time, dose: 100.0 mg/kg/injection, schedule: Q01DX001 (ip), vehicle: carboxymethylcellulose (CMC)) turn out when `O=c1cn[nH]c2c(Cl)cccc12` was run?
**A.** Its T/C is 106 % of control.

**Q.** What about the T/C (endpoint: mean survival time, dose: 200.0 mg/kg/injection, schedule: Q01DX001 (ip), vehicle: carboxymethylcellulose (CMC)) of the same compound?
**A.** The T/C was 95 % of control.

**Q.** `O=C(CC(O)(C(F)(F)F)C(F)(F)F)c1ccc(C(=O)CC(O)(C(F)(F)F)C(F)(F)F)cc1` was tested. Which T/C (endpoint: mean survival time, dose: 12.5 mg/kg/injection, schedule: Q01DX009 (ip), vehicle: other) did it give?
**A.** The T/C was 105 % of control.

**Q.** What about the T/C (endpoint: mean survival time, dose: 25.0 mg/kg/injection, schedule: Q01DX009 (ip), vehicle: other) of the same compound?
**A.** Its T/C is 105 % of control.

**Q.** And the T/C (endpoint: mean survival time, dose: 50.0 mg/kg/injection, schedule: Q01DX009 (ip), vehicle: other)?
**A.** Its T/C is 113 % of control.

**Q.** What about the T/C (endpoint: mean survival time, dose: 100.0 mg/kg/injection, schedule: Q04DX003 (ip), vehicle: other) of the same compound?
**A.** Its T/C is 113 % of control.

**Q.** And the T/C (endpoint: mean survival time, dose: 200.0 mg/kg/injection, schedule: Q04DX003 (ip), vehicle: other)?
**A.** Its T/C is 105 % of control.

**Q.** What does the source list for `CC(=O)OC1CCC2(C)C(CCC3(C)C2CC=C2C4CC(C)(C)CCC4(C)CCC23C)C1(C)C` (centres undefined)?
**A.** T/C [1]: 101 % of control; T/C [2]: 101 % of control; T/C (endpoint: mean survival time, dose: 400.0 mg/kg/injection, schedule: Q01DX001 (ip), vehicle: saline): 101 % of control
